The record followed here is patent publication US20080269293A1, “PYRAZOLE DERIVATIVES AS ANTI-PLATELET AND ANTI-THROMBOTIC AGENTS” (Pfizer Inc., priority 2006, published 2008).

Some results are limits rather than exact numbers.

The assay has as its target T1, platelet P2Y1 receptor (Homo sapiens, UniProt P47900).
T1 construct: expressed in transfected cells
Put plainly: P2Y1 receptor binding assay ([β-33P]-2-thiomethyl ADP). The following applies: binding of 0.3 nM [β-33P]-2-thiomethyl ADP, hP2Y1 expressing 132N1 cell membrane, 25° C., 60 minutes. The protocol:
Conducting P2Y, Receptor Binding Assay
[β−^33P]-2-thiomethyl ADP (2100 Ci/mmol) was purchased from PerkinElmer, Protease Inhibitors Complete, EDTA-free, was purchased from Roche, and ADP (Adenosine diphosphate), MRS2179, and 2-thiomethy ADP (2-Me-S-ADP) were purchased from Sigma Chemical Co.
Binding of 0.3 nM [β-^33P]-2-thiomethyl ADP to platelet P2Y1 receptor in 132N1 cell membrane was carried out in triplicate at 25° C. with 96 well plate (Corning, 3365). Nonspecific binding was defined as binding in the presence of 1 μM of 2-Me-S-ADP. One […] of dimethyl sulfoxide (DMSO) or 1 μL of DMSO (Sigma-Aldrich, 472301) containing a test compound diluted to final assay concentrations of 0.1 nM to 1 mM were placed into each well of a Corning 96-well plate. A volume of 60 μL of buffer: 50 mM Tris pH 7.5 (Sigma, T-2194), 1 mM EDTA (Gibco, 15575-038) and 100 mM NaCl (Gibco, 200740-011) containing 0.3 nM [β-^33P]-2-thiomethyl ADP 40 μL of hP2Y1 expressing 132N1 cell membrane prep was added to each well. After incubation on shaker for 60 minutes, The contents of the wells are filtered and washed 8 times with Tomtec Cell Harvester through UniFilter 96, GF/B plates (PerkinElmer, 6005177) Forty five microliters […] Scintillation cocktail (Ultima-Flo-M) was added into each well and plates counted on a Trilux Microbeta Counter.
• 1. Add 1 μL DMSO or compounds into the wells according to the protocol. • 2. Add 60 μL incubation buffer with [β-^33P]-2-thiomethyl ADP into each well. • 3. Add 40 μL hP2Y1 expressing 132N1 cell membrance prep. Incubate 60 minutes on top of the shaker (IKA Shutter MTS4). • 4. Filter and wash 8× with Tomtec Cell Harvester through UniFilter GF/B plates (PerkinElmer, 6005177). • 5. Add 45 μL scintillation cocktail into each well and plates counted on a Trilux Microbeta Counter.

T1 sequence (P47900 whole entry): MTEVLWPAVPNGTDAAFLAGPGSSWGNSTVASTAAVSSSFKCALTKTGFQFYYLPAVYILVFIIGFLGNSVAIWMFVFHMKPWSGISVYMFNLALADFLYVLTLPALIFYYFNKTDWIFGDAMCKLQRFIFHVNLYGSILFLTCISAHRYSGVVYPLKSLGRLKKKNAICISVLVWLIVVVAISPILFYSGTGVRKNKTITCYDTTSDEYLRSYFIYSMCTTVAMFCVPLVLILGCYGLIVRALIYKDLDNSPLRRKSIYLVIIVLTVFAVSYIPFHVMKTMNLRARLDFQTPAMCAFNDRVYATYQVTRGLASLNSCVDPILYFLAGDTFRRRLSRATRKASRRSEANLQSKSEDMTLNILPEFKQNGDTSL

The compound `Cc1cc(Oc2ccccc2NC(=O)Nc2ccc(OC(F)(F)F)cc2)n(-c2cccc(Cl)c2F)n1` [Example 88, 1-{2-[2-(3-Chloro-2-fluoro-phenyl)-5-methyl-2H-pyrazol-3-yloxy]-phenyl}-3-(4-trifluoromethoxy-phenyl)-urea] returned an IC50 of 149 nM.
As for `CCc1ccccc1-n1nc(C)cc1Oc1ccccc1NC(=O)Nc1ccc(OC(F)(F)F)cc1` [Example 3], the figure is 48 nM; as for `Cc1cc(Oc2ccccc2NC(=O)Nc2cc(F)ccc2C)n(-c2ccccc2)n1` [Example 48], above 10000 nM.
With `Cc1cc(Oc2ccccc2NC(=O)Nc2ccc(OC(F)(F)F)cc2)n(-c2ccccc2C)n1` [Example 1, 1-[2-(5-Methyl-2-o-tolyl-2H-pyrazol-3-yloxy)-phenyl]-3-(4-trifluoromethoxy-phenyl)-urea], the IC50 came out at 152 nM.
Next, `CCc1ccccc1-n1nc(C)cc1Oc1ccccc1NC(=O)Nc1ccc(C(F)(F)F)cc1F` [Example 93, 1-(2-(1-(2-ethylphenyl)-3-methyl-1H-pyrazol-5-yloxy)phenyl)-3-(2-fluoro-4-(trifluoromethyl)phenyl)urea]: 123 nM.
Next, `CC(C)c1cc(Oc2ccccc2NC(=O)Nc2ccc(OC(F)(F)F)cc2)n(-c2ccccc2)n1` [Example 29, 1-[2-(5-Isopropyl-2-phenyl-2H-pyrazol-3-yloxy)-phenyl]-3-(4-trifluoromethoxy-phenyl)-urea]: above 10000 nM; `Cc1cc(Oc2ccccc2NC(=O)Nc2ccc(OC(F)(F)F)cc2)n(-c2cccc(Cl)c2Cl)n1` [Example 4]: 89 nM.
Turning to `Cc1cc(Oc2ccccc2NC(=O)Nc2c(Cl)cccc2Cl)n(-c2ccccc2)n1` [Example 61], the IC50 was above 10000 nM.
As to `Cc1cc(Oc2ccccc2NC(=O)Nc2ccc(-n3cccn3)cc2)n(-c2ccccc2Cl)n1` [Example 99, 1-(4-(1H-pyrazol-1-yl)phenyl)-3-(2-(1-(2-chlorophenyl)-3-methyl-1H-pyrazol-5-yloxy)phenyl)urea], the IC50 is above 10000 nM.
As to `Cc1cc(Oc2ccccc2NC(=O)Nc2ccc(C3CCCCC3)cc2)n(-c2ccccc2Cl)n1` [Example 89, 1-{2-[2-(2-Chloro-phenyl)-5-methyl-2H-pyrazol-3-yloxy]-phenyl}-3-(4-cyclohexyl-phenyl)-urea], the IC50 was 54 nM.
As for `Cc1cc(Oc2ccccc2NC(=O)Nc2ccc(OC(F)(F)F)cc2)n(-c2c(Cl)cccc2Cl)n1` [Example 19], the figure is 142 nM; as for `CCc1ccccc1-n1nc(C)cc1Oc1ccccc1NC(=O)Nc1ccc(-c2cnco2)cc1` [Example 102, 1-(2-(1-(2-ethylphenyl)-3-methyl-1H-pyrazol-5-yloxy)phenyl)-3-(4-(oxazol-5-yl)phenyl)urea], 1190 nM; as for `Cc1cc(Oc2ccccc2NC(=O)Nc2ccc(C3CCCCC3)cc2)n(-c2ccc(F)cc2Cl)n1` [Example 115, 1-(2-(1-(2-chloro-4-fluorophenyl)-3-methyl-1H-pyrazol-5-yloxy)phenyl)-3-(4-cyclohexylphenyl)urea], 18 nM.
Next, `Cc1cc(Oc2cc(C)c(F)cc2NC(=O)Nc2ccc(OC(F)(F)F)cc2)n(-c2ccccc2)n1` [Example 30]: 1240 nM.
As for `O=C(Nc1ccc(OC(F)(F)F)cc1)Nc1ccccc1Oc1ccnn1-c1ccccc1Cl` [Example 25, 1-{2-[2-(2-Chloro-phenyl)-2H-pyrazol-3-yloxy]-phenyl}-3-(4-trifluoromethoxy-phenyl)-urea], the figure is 268 nM; as for `COC(=O)c1ccc(NC(=O)Nc2ccccc2Oc2cc(C)nn2-c2ccccc2Cl)cc1` [Example 86, 4-(3-{2-[2-(2-Chloro-phenyl)-5-methyl-2H-pyrazol-3-yloxy]-phenyl}-ureido)-benzoic acid methyl ester], 5060 nM; as for `Cc1cc(Oc2ccccc2NC(=O)Nc2ccc(C3CC3)cc2)n(-c2ccccc2Cl)n1` [Example 123, 1-(2-(1-(2-chlorophenyl)-3-methyl-1H-pyrazol-5-yloxy)phenyl)-3-(4-cyclopropylphenyl)urea], 121 nM.

The IC50 is the concentration needed to halve the response being measured. Read a low IC50 as greater potency in that assay.
